Values of other authors, collected in patent US20030216431A1, “Ophthalmic pharmaceutical compositions and methods for treating ocular inflammation” (priority 2002, published 2003).

Conditions: for daily dosage causing serious retinopathy: systemic use in patients, nearly all instances

SMILES | time to onset of definite retinopathy (dosage slightly greater than 250 mg chloroquine diphosphate per day) | daily dosage causing serious retinopathy | duration of intake without clinically evident retinopathy (not exceeding 250 mg diphosphate or 200 mg sulfate per day)
CCN(CC)CCCC(C)Nc1ccnc2cc(Cl)ccc12 (stereo not shown) [chloroquine diphosphate, Quinoline, 7-chloro-4-((4-(diethylamino)-1-methylbutyl)amino)-, diphosphate] | one to three | more than 250 mg per day | 
CCN(CC)CCCC(C)Nc1ccnc2cc(Cl)ccc12.O=S(=O)(O)O (stereo not shown) [chloroquine sulfate, Quinoline, 7-chloro-4-((4-(diethylamino)-1-methylbutyl)amino)-, sulfate] |  | > 200 mg per day | 
CCN(CC)CCCC(C)Nc1ccnc2cc(Cl)ccc12 (stereo not shown) [chloroquine, Chloroquine] |  |  | nine
